Some test systems named below: A498; CCRF-CEM; COLO 205; HCT-116; HCT-15; HL-60; HOP-92; IGROV-1; KM12; NCI-H460; OVCAR-3; RPMI-8226; SF-268; SF-295; SK-MEL-5; TK-10; ACHN.
Holding throughout (experiment): growth of human tumour cells (NCI), 48 h

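Values below derive from 48-hour exposures of cells grown in 96-well plates, with endpoints linearly interpolated between the two concentrations bracketing the appropriate inhibition level. GI50 is the concentration that inhibits growth by half.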 The source made the active and inactive calls. No stated cut-off is given here; in the data, active = GI50 up to about 1.1 µM and inactive = higher.

With `O=c1[nH]c2cc(-c3ccccc3)nc-2nn1-c1c(Cl)cc(Cl)cc1Cl`, the GI50 with A498 was 33 µM (inactive); with CCRF-CEM, 28.6 µM (inactive); in the assay with COLO 205, 15.1 µM (inactive); in the assay with HCT-116, 22.4 µM (inactive); in the assay with HCT-15, 36 µM; in the assay on HL-60 it was 20.5 µM (inactive). Moreover, the GI50 with HOP-92 is 31.5 µM (inactive); in the assay on IGROV-1 it was 38.5 µM (inactive); in the assay with KM12, 20.5 µM (inactive); in the assay on NCI-H460 it was 30.4 µM (inactive); in the assay on OVCAR-3 it was 23.2 µM (inactive); with RPMI-8226 it was 24.3 µM (inactive). Further, the GI50 is > 100 µM (inactive) in the assay with SF-268, 32.1 µM (inactive) with SF-295, 25.9 µM (inactive) with SK-MEL-5 and 28.6 µM (inactive) in the assay with TK-10.
For the molecule `COCCCNC(=O)C1C(=O)C(=O)N(CCCOC)C1=O` (configuration not stated), the GI50 was > 100 µM (inactive) in the assay on A498; > 100 µM (inactive) in the assay with ACHN; > 100 µM (inactive) with CCRF-CEM; > 100 µM (inactive) in the assay with COLO 205; > 100 µM (inactive) with HCT-116; more than 100 µM with HCT-15. In addition, the GI50 in the assay with HL-60, with HOP-92, in the assay with IGROV-1, in the assay on OVCAR-3, with RPMI-8226 and with SF-268 was > 100 µM (inactive) each time. Further, the GI50 in the assay on SF-295, in the assay on SK-MEL-5 and in the assay with TK-10 was > 100 µM (inactive) in each case.
Regarding `CCc1cccc(C(C)C)c1NC(=O)CC1Sc2ccccc2NC1=O` (configuration not stated), the GI50 in the assay with A498 was 46.8 µM (inactive); with ACHN, 51.6 µM (inactive); in the assay with CCRF-CEM it was 47.5 µM (inactive); in the assay with COLO 205 it was 50.4 µM (inactive); in the assay on HCT-116, 56.4 µM (inactive); with HCT-15, 47.9 µM. The GI50 with HL-60 is 24 µM (inactive); with HOP-92, 39.5 µM (inactive); in the assay on IGROV-1, 37.8 µM (inactive); in the assay on KM12, 54.8 µM (inactive); in the assay with NCI-H460, 71.4 µM (inactive); in the assay with OVCAR-3, 56 µM (inactive). Also, the GI50 in the assay on RPMI-8226 is 48.5 µM (inactive); in the assay on SF-268, > 100 µM (inactive); with SF-295, 44.3 µM (inactive); with SK-MEL-5 it was 36.5 µM (inactive); in the assay on TK-10, > 100 µM (inactive).
Turning to `C=CCNC(=O)N(CCCC(NC(C)=O)C(=O)NCc1ccccc1)Cc1ccccc1` (configuration not stated), the GI50 with A498 was > 100 µM (inactive); with ACHN it was > 100 µM (inactive); in the assay on CCRF-CEM, > 100 µM (inactive); in the assay on COLO 205, > 100 µM (inactive); with HCT-15, more than 100 µM; with HL-60, > 100 µM (inactive). The GI50 is 83 µM (inactive) in the assay with HOP-92; > 100 µM (inactive) in the assay on IGROV-1; > 100 µM (inactive) in the assay on KM12; > 100 µM (inactive) in the assay with NCI-H460; > 100 µM (inactive) in the assay on OVCAR-3; > 100 µM (inactive) in the assay with RPMI-8226. Further, the GI50 in the assay on SF-268, with SF-295, in the assay on SK-MEL-5 and in the assay with TK-10 was > 100 µM (inactive) each time.
For the molecule `N#CC(/C(=N/NC(=O)C(=O)NN)C(=O)NC12CC3CC(CC(C3)C1)C2)c1ccccc1` (configuration not stated), the GI50 with A498 is > 100 µM (inactive); in the assay on ACHN, > 100 µM (inactive); with CCRF-CEM it was > 100 µM (inactive); in the assay with COLO 205, > 100 µM (inactive); in the assay with HCT-116 it was > 100 µM (inactive); in the assay with HCT-15, more than 100 µM. The GI50 with HL-60, in the assay on HOP-92, in the assay with IGROV-1, with KM12, with NCI-H460 and in the assay with OVCAR-3 was > 100 µM (inactive) throughout. The GI50 in the assay with RPMI-8226, with SF-268, in the assay on SF-295, in the assay with SK-MEL-5 and in the assay on TK-10 was > 100 µM (inactive) each time.
With `COc1ccc(OC(C)=O)c2c1CCC=CC2=O`, the GI50 with A498 was 21.5 µM (inactive); with ACHN, 17.9 µM (inactive); in the assay with CCRF-CEM it was 3.44 µM (inactive); with COLO 205, 9.2 µM (inactive); with HCT-116 it was 18.7 µM (inactive); in the assay with HCT-15, 14.5 µM. Further, the GI50 in the assay on HL-60 is 2.47 µM (inactive); in the assay on HOP-92 it was 2.83 µM (inactive); in the assay with IGROV-1 it was 17.7 µM (inactive); in the assay on KM12, 3.4 µM (inactive); in the assay with NCI-H460, 19.1 µM (inactive); with OVCAR-3, 15.8 µM (inactive). The GI50 was 1.01 µM (active) in the assay with RPMI-8226; > 10 µM (inactive) with SF-268; 20.9 µM (inactive) in the assay on SF-295; 15.6 µM (inactive) in the assay with SK-MEL-5; 18.3 µM (inactive) in the assay on TK-10.
In the case of `COc1ccc(C2SCC(=O)N2NC(=O)c2ccncc2)cc1F` (configuration not stated), the GI50 was > 100 µM (inactive) in the assay with A498; > 100 µM (inactive) in the assay on ACHN; > 100 µM (inactive) in the assay with COLO 205; > 100 µM (inactive) in the assay with HCT-116; more than 100 µM with HCT-15; > 100 µM (inactive) in the assay on HL-60. In addition, the GI50 in the assay with HOP-92, in the assay with KM12, in the assay on NCI-H460, in the assay with RPMI-8226, with SF-268 and in the assay with SF-295 was > 100 µM (inactive) each time. Besides, the GI50 with SK-MEL-5 and in the assay with TK-10 was > 100 µM (inactive) in each case.
Regarding `CCOc1ccccc1NC(=O)/C=C1\NC(=O)CS1`, the GI50 was > 100 µM (inactive) in the assay with A498; 69 µM (inactive) in the assay on CCRF-CEM; > 100 µM (inactive) in the assay on COLO 205; > 100 µM (inactive) in the assay with HCT-116; > 100 µM (inactive) with HL-60; > 100 µM (inactive) in the assay on HOP-92. In addition, the GI50 in the assay with IGROV-1 is > 100 µM (inactive); in the assay on KM12 it was > 100 µM (inactive); in the assay with NCI-H460, > 100 µM (inactive); in the assay on OVCAR-3, > 100 µM (inactive); in the assay on RPMI-8226, 62.5 µM (inactive); in the assay on SF-268, > 100 µM (inactive). The GI50 with SF-295, in the assay with SK-MEL-5 and with TK-10 was > 100 µM (inactive) each time.
For the molecule `N=C(N)N/N=C(/CC1OC(=O)c2ccccc21)c1ccc2ccccc2c1` (configuration not stated), the GI50 with A498 is 16 µM (inactive); with ACHN, 18.9 µM (inactive); with CCRF-CEM, 15.1 µM (inactive); with COLO 205, 19.6 µM (inactive); in the assay with HCT-15 it was 15.3 µM; in the assay on HL-60 it was 17.8 µM (inactive). The GI50 in the assay on HOP-92 is 22 µM (inactive); in the assay with IGROV-1 it was 22.1 µM (inactive); with KM12, 12.9 µM (inactive); in the assay on NCI-H460 it was 16.4 µM (inactive); with OVCAR-3, 17.5 µM (inactive); with RPMI-8226, 17.1 µM (inactive). Besides, the GI50 with SF-268 was 13.6 µM (inactive); in the assay with SF-295, 23.8 µM (inactive); with SK-MEL-5, 21.4 µM (inactive); in the assay with TK-10, 18.1 µM (inactive).
`COc1ccc(C2c3cc4c(cc3OC(O)(CO)C2C(=O)O)OCO4)cc1.COc1ccc(C2c3cc4c(cc3OC3(O)COC(=O)C23)OCO4)cc1` (configuration not stated): the GI50 in the assay on A498 was 89.3 µM (inactive); in the assay on CCRF-CEM, 18.7 µM (inactive); in the assay with COLO 205, 10.3 µM (inactive); in the assay with HCT-116, 18.2 µM (inactive); in the assay with HCT-15, 17.7 µM; in the assay with HL-60 it was 17.2 µM (inactive). For the same molecule, the GI50 in the assay with HOP-92 was 21 µM (inactive); in the assay on IGROV-1, 20.4 µM (inactive); in the assay with KM12 it was 28.2 µM (inactive); with NCI-H460 it was 19.1 µM (inactive); with OVCAR-3 it was 22.4 µM (inactive); in the assay with RPMI-8226, 20.4 µM (inactive). Also, the GI50 in the assay with SF-268 was 28 µM (inactive); in the assay on SF-295 it was 22.8 µM (inactive); in the assay on SK-MEL-5, 19.8 µM (inactive); with TK-10 it was 67.6 µM (inactive).
Turning to `Cc1ccccc1N(CC(=O)O)S(=O)(=O)c1ccccc1`, the GI50 is > 100 µM (inactive) in the assay on A498; > 100 µM (inactive) in the assay with ACHN; > 100 µM (inactive) with CCRF-CEM; > 100 µM (inactive) with COLO 205; more than 100 µM with HCT-15; > 100 µM (inactive) in the assay with HL-60. The GI50 in the assay on HOP-92, in the assay with IGROV-1, in the assay on KM12, in the assay with NCI-H460, in the assay on OVCAR-3 and with RPMI-8226 was > 100 µM (inactive) each time. For the same molecule, the GI50 with SF-268, with SF-295, in the assay on SK-MEL-5 and with TK-10 was > 100 µM (inactive) each time.
`COc1cc(-c2cc(=O)c3c(O)c(OC)c(OC)c(OC)c3o2)ccc1O`: the GI50 in the assay with A498 was 2.61 µM (inactive); in the assay on ACHN, 21.4 µM (inactive); in the assay on CCRF-CEM it was 22.4 µM (inactive); in the assay with COLO 205, > 10 µM (inactive); in the assay with HCT-116 it was 24.8 µM (inactive); in the assay with HCT-15 it was 7.74 µM. The GI50 in the assay on HL-60 is 31.3 µM (inactive); in the assay on HOP-92 it was 2.33 µM (inactive); in the assay with IGROV-1 it was 4.84 µM (inactive); with KM12, 29.9 µM (inactive); in the assay on NCI-H460, 16.2 µM (inactive); in the assay on OVCAR-3 it was 32.1 µM (inactive). Moreover, the GI50 in the assay on RPMI-8226 is 19 µM (inactive); in the assay on SF-268 it was 26.5 µM (inactive); in the assay on SF-295, 23.4 µM (inactive); in the assay on SK-MEL-5 it was 15.3 µM (inactive); in the assay with TK-10 it was 28.2 µM (inactive).
